{"source": "patent US7732434B2", "about": "“Macrocyclic acyl guanidines as beta-secretase inhibitors” (Bristol-Myers Squibb Company, priority 2007, dated 2010)", "data": [{"biological_target": "T1, BACE1 enzyme (Homo sapiens, UniProt P56817)", "T1 construct": "The HEK293-9B.A1 cell line, which overexpresses the BACE1 enzyme, was derived from HEK293 cells; endogenous in cells; washed 48,000 x g pellet of cell homogenate", "T1 sequence (P56817 46-501)": "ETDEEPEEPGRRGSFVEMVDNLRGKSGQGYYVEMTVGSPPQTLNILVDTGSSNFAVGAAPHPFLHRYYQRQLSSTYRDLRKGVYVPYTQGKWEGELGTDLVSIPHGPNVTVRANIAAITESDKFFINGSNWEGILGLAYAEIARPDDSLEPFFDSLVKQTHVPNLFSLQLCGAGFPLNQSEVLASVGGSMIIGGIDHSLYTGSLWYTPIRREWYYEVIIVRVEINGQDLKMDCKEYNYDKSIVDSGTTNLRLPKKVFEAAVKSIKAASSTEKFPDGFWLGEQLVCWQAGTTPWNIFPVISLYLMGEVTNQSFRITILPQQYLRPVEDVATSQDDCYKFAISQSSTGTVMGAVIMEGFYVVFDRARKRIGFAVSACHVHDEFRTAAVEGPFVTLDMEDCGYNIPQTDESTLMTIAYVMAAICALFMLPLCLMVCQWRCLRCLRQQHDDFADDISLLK", "test": "Radioligand displacement assay with a radiolabeled BACE inhibitor, HEK293-9B.A1 cell homogenate", "type": "binding", "details": "displacement of 1 nM radioligand, HEK293-9B.A1 homogenate, pH 5.0, 1.5 hr at 25° C.; read-out: Activity Rating (activity based on IC50 values)", "method": "Radioligand displacement assays with a radiolabeled BACE inhibitor (WO 2004 013098, compound 3, where the methoxy group is substituted for C(^3H)3) were carried out using standard methods (Keen, M. (1999) in Receptor Binding Techniques (Walker, J. M. ed) p. 106Humana Press, Totowa, N.J.). The HEK293-9B.A1 cell line, which overexpresses the BACE1 enzyme, was derived from HEK293 cells (Simmons, N. L. (1990) A cultured human renal epithelioid cell line responsive to vasoactive intestinal peptide. Exp. Physiol. 75:309-19.) by RAGE™ (Harrington, J. J. et al. (2001) Creation of genome-wide protein expression libraries using random activation of gene expression. Nat. Biotechnol. 19:440-5.; U.S. Pat. Nos. 6,410,266 and 6,361,972). T225 flask cultures of HEK293-9B.A1 were grown to 80% confluency in DMEM supplemented with 2 mM L-glutamine, 10 μg/ml penicillin, 10 μg/ml streptomycin, 3 μg/ml puromycin, 100 nM methotrexate, and 10% fetal bovine serum (Invitrogen, Carlsbad, Calif.), harvested, and resuspended at 2×10^8 cells per 10 ml of lysis buffer consisting of 50 mM HEPES pH 7.0 containing a protease inhibitor cocktail of AEBSF 104 μM, aprotinin 80 nM, leupeptin 2 μM, bestatin 4 μM, pepstatin A 1.5 μM, and E-64 1.4 μM (0.1% of protease inhibitor cocktail P8340, Sigma-Aldrich, St. Louis, Mo.) at 4° C. The resuspended cells were homogenized using a Polytron (Brinkman, Westbury, N.Y.) at setting 6 for 10 sec., then centrifuged at 48,000×g for 10 min. The resulting pellet was washed by repeating the resuspension, homogenization and centrifugation steps. The final pellet was resuspended in buffer at 4° C. to yield a total protein concentration of 5 mg/ml, then aliquots were frozen in liquid nitrogen for further storage at −70° C. Immediately before carrying out a binding assay, an aliquot of cell homogenate was thawed and diluted to a concentration of 100 μg/ml in assay buffer consisting of 50 mM HEPES pH 5.0 and 0.1% CHAPSO. Assays were initiated in polypropylene 96-well plates (Costar, Cambridge, Mass.) by the addition of 200 μl of cell homogenate to 50 μl of assay buffer containing 1 nM radioligand (WO 2004 013098, compound 3, where the methoxy group is substituted for C(^3H)3: 80 Ci/mMol) and various concentrations of unlabelled compounds, and incubated for 1.5 hr. at 25° C. Separation of bound from free radioligand was by filtration on GFF glass fiber filters (Innotech Biosystems International, Lansing, Mich.) using an Innotech cell harvester. Filters were washed three times with 0.3 ml of phosphate buffered saline pH 7.0 at 4° C. and assessed for radioactivity using a Wallac 1450 Microbeta liquid scintillation counter (PerkinElmer, Boston, Mass.). Ki values of competing compounds were derived through Cheng-Prussoff correction of IC50 values calculated using XLfit (IDBS, Guildford, UK).", "units": {"IC50": "nM"}, "values": [{"smiles": "Cc1onc2c1C(=O)/N=C(\\N)NCc1cc(Cl)c(c(Cl)c1)NC(=O)CNCC=CCOc1ccc-2cc1", "note": "[Example 1, 9-Amino-14,30-dichloro-5-methyl-4,24-dioxa-3,8,10,16,19-pentaazatetracyclo-[23.2.2.2^12,15.0^2,6]hentriaconta-1(27),2,5,8,12,14,21,25,28,30-decaene-7,17-dione]", "IC50": "> 50"}, {"smiles": "Cc1onc2c1C(=O)/N=C(\\N)NCc1cc(Cl)c(c(Cl)c1)NC(=O)CNCC/C=C/COc1ccc-2cc1", "note": "[Example 2, (22E)-9-Amino-14,31-dichloro-5-methyl-4,25-dioxa-3,8,10,16,19-pentaazatetracyclo[24.2.2.2^12,15.0^2,6]dotriaconta-1(28),2,5,8,12,14,22,26,29,31-decaene-7,17-dione]", "IC50": "> 50"}, {"smiles": "Cc1onc2c1C(=O)/N=C(\\N)NCc1cc(Cl)c(c(Cl)c1)NC(=O)CNCCC/C=C\\COc1ccc-2cc1", "note": "[Example 3, 9-Amino-14,32-dichloro-5-methyl-4,26-dioxa-3,8,10,16,19-pentaazatetracyclo-[25.2.2.2^12,15.0^2,6]tritriaconta-1(29),2,5,8,12,14,23,27,30,32-decaene-7,17-dione]", "IC50": "5 to 50"}, {"smiles": "Cc1snc2c1C(=O)/N=C(\\N)NCc1cc(Cl)c(c(Cl)c1)NC(=O)CNCCCC=CCOc1ccc-2cc1", "note": "[Example 4, 9-Amino-14,32-dichloro-5-methyl-26-oxa-4-thia-3,8,10,16,19-pentaazatetracyclo[25.2.2.2^12,15.0^2,6]tritriaconta-1(29),2,5,8,12,14,23,27,30,32-decaene-7,17-dione]", "IC50": "5 to 50"}, {"smiles": "Cc1snc2c1C(=O)/N=C(\\N)NCc1cc(Cl)c(c(Cl)c1)NC(=O)CNCCCCCCOc1ccc-2cc1", "note": "[Example 5, 9-Amino-14,32-dichloro-5-methyl-26-oxa-4-thia-3,8,10,16,19-pentaazatetracyclo[25.2.2.2^12,15.0^2,6]tritriaconta-1(29),2,5,8,12,14,27,30,32-nonaene-7,17-dione]", "IC50": "5 to 50"}, {"smiles": "Cc1snc2c1C(=O)/N=C(\\N)NCc1cc(Cl)c(c(Cl)c1)NC(=O)CN(Cc1ccccc1)CCCC=CCOc1ccc-2cc1", "note": "[Example 6, 9-Amino-19-benzyl-14,32-dichloro-5-methyl-26-oxa-4-thia-3,8,10,16,19-pentaazatetracyclo[25.2.2.2^12,15.0^2,6]tritriaconta-1(29),2,5,8,12,14,23,27,30,32-decaene-7,17-dione]", "IC50": "5 to 50"}, {"smiles": "Cc1onc2c1C(=O)/N=C(\\N)NCc1cc(Cl)c(c(Cl)c1)NC(=O)CNCCCC/C=C\\COc1ccc-2cc1", "note": "[Example 7, (24Z)-9-Amino-14,33-dichloro-5-methyl-4,27-dioxa-3,8,10,16,19-pentaazatetracyclo[26.2.2.2^12,15.0^2,6]tetratriaconta-1(30),2,5,8,12,14,24,28,31,33-decaene-7,17-dione]", "IC50": "< 5"}, {"smiles": "Cc1snc2c1C(=O)/N=C(\\N)NCc1cc(Cl)c(c(Cl)c1)NC(=O)CNCC/C=C\\COc1ccc-2cc1", "note": "[Example 8, (22Z)-9-Amino-14,31-dichloro-5-methyl-25-oxa-4-thia-3,8,10,16,19-pentaazatetracyclo[24.2.2.2^12,15.0^2,6]dotriaconta-1(28),2,5,8,12,14,22,26,29,31-decaene-7,17-dione]", "IC50": "< 5"}, {"smiles": "Cc1snc2c1C(=O)/N=C(\\N)NCc1cc(Cl)c(c(Cl)c1)NC(=O)CNCCCCCOc1ccc-2cc1", "note": "[Example 9, 9-Amino-14,31-dichloro-5-methyl-25-oxa-4-thia-3,8,10,16,19-pentaazatetracyclo[24.2.2.2^12,15.0^2,6]dotriaconta-1(28),2,5,8,12,14,26,29,31-nonaene-7,17-dione]", "IC50": "< 5"}, {"smiles": "Cc1onc2c1C(=O)/N=C(\\N)NCc1ccc(cc1)NC(=O)CNCCC/C=C\\COc1ccc-2cc1", "note": "[Example 10, (23Z)-9-Amino-5-methyl-4,26-dioxa-3,8,10,16,19-pentaazatetracyclo-[25.2.2.2^12,15.0^2,6]tritriaconta-1(29),2,5,8,12,14,23,27,30,32-decaene-7,17-dione]", "IC50": "< 5"}, {"smiles": "Cc1onc2c1C(=O)N=C(N)NCc1ccc(c(Cl)c1)NC(=O)CNCCC/C=C\\COc1ccc-2cc1", "note": "[Example 11, (23Z)-9-Amino-14-chloro-5-methyl-4,26-dioxa-3,8,10,16,19-pentaazatetracyclo-[25.2.2.2^12,5.0^2,6]tritriaconta-1(29),2,5,8,12,14,23,27,30,32-decaene-7,17-dione]", "IC50": "< 5"}]}, {"system": "not given", "test": "not given", "details": "from C=CCCCCN(CC(=O)Nc1c(Cl)cc(CN/C(=N/C(=O)c2c(-c3ccc(OCC=C)cc3)noc2C)NC(=O)OC(C)(C)C)cc1Cl)C(=O)OC(C)(C)C; rcm bond; Grubbs Catalyst 2nd Generation; 1,2-dichloroethane; 3.71 mM; 45.0 °C; 2.0 h", "units": {"ring closure, yield of all isomers": "%"}, "values": [{"smiles": "Cc1onc2c1C(=O)N=C(NC(=O)OC(C)(C)C)NCc1cc(Cl)c(c(Cl)c1)NC(=O)CN(C(=O)OC(C)(C)C)CCCCC=CCOc1ccc-2cc1", "note": "(mixture of isomers)", "ring closure, yield of all isomers": 64.9}]}, {"system": "not given", "test": "not given", "details": "from C=CCCCN(CC(=O)Nc1c(Cl)cc(CN/C(=N/C(=O)c2c(-c3ccc(OCC=C)cc3)noc2C)NC(=O)OC(C)(C)C)cc1Cl)C(=O)OC(C)(C)C; rcm bond; Grubbs Catalyst 2nd Generation; 1,2-dichloroethane; 3.94 mM; 40.0 °C; 2.0 h", "units": {"ring closure, yield of all isomers": "%"}, "values": [{"smiles": "Cc1onc2c1C(=O)N=C(NC(=O)OC(C)(C)C)NCc1cc(Cl)c(c(Cl)c1)NC(=O)CN(C(=O)OC(C)(C)C)CCCC=CCOc1ccc-2cc1", "ring closure, yield of all isomers": 69.9}]}, {"system": "not given", "test": "not given", "details": "from C=CCCCN(CC(=O)Nc1c(Cl)cc(CN/C(=N/C(=O)c2c(-c3ccc(OCC=C)cc3)nsc2C)NC(=O)OC(C)(C)C)cc1Cl)C(=O)OC(C)(C)C; rcm bond; Grubbs Catalyst 1st Generation; 1,2-dichloroethane; 3.04 mM; 70.0 °C; 6.0 h", "units": {"ring closure, yield of all isomers": "%"}, "values": [{"smiles": "Cc1snc2c1C(=O)N=C(NC(=O)OC(C)(C)C)NCc1cc(Cl)c(c(Cl)c1)NC(=O)CN(C(=O)OC(C)(C)C)CCCC=CCOc1ccc-2cc1", "ring closure, yield of all isomers": 68}]}, {"system": "not given", "test": "not given", "details": "from C=CCOc1ccc(-c2noc(C)c2C(=O)/N=C(/NCc2cc(Cl)c(NC(=O)CN(CC=C)C(=O)OC(C)(C)C)c(Cl)c2)NC(=O)OC(C)(C)C)cc1; rcm bond; Grubbs Catalyst 2nd Generation; 1,2-dichloroethane; 5.84 mM; 45.0 °C; 2.0 h", "units": {"ring closure, yield of all isomers": "%"}, "values": [{"smiles": "Cc1onc2c1C(=O)N=C(NC(=O)OC(C)(C)C)NCc1cc(Cl)c(c(Cl)c1)NC(=O)CN(C(=O)OC(C)(C)C)CC=CCOc1ccc-2cc1", "ring closure, yield of all isomers": 53}]}]}
